Assays:
Format in all cases: cell-based
[1] = system: SWELL1 current; experiment: Hypotonically-induced currents in wild-type primary macrophages; details: wild-type (WT) primary macrophages, 210 mOsm; FIG. 7
[2] = system: SWELL1 KO primary macrophages; experiment: Hypotonically-induced currents in SWELL1 KO primary macrophages; details: 210 mOsm, FIG. 8
Procedure: See FIG. 7 (Panel A, Current over time plot; Panel B, Current voltage plot from (A) above). Current over time of hypotonically-induced currents in SWELL1 KO primary macrophages (210 mOsm) was measured along with DCPIB response. […] See FIG. 8 (Panel A, Current over time plot; Panel B, Current voltage plot from (A) above).

[3] = system: RAW 264.7 cells; experiment: LPS-induced inflammatory cytokine mRNA expression in RAW 264.7 cells (qRT-PCR); details: 10 μM, 2 hours preincubation, LPS 50 ng/ml for 30 minutes, FIG. 6
Procedure: RAW 264.7 cells were incubated with either vehicle (DMSO) or SN-401 (10 μM) and SN-406 (10 μM) for 2 hours and subsequently, cells were activated with either LPS (50 ng/ml) alone or along with SN-401 (10 μM) and SN-406 (10 μM) for 30 minutes. After the activation cells were harvested for qRT-PCR analysis (see FIG. 6, panels A-C). Relative mRNA expression for selected inflammatory markers, IL1β, TNF-α and CXCL10 from 3 independent experiments. Statistical significance between the indicated groups were calculated by using a two-tailed Student's t-test. Error bars represent mean ±s.e.m. *, P<0.05, **, P<0.01, ***, P<0.001, ****, P<0.0001.

[4] = system: inflammasome mediated IL-1β secretion from primary macrophages; experiment: Macrophage inflammasome activation (IL-1β) in response to LPS + MSU crystals; details: LPS priming followed by MSU, FIG. 5
Description: See FIG. 4 for the structures of the compounds. Mechanical stimulation by MSU crystals function as a physiological activation mechanism for the putatively mechanosensitive SWELL1-LRRC8 channel complex as macrophages engulf MSU and undergo large volume changes. This is analogous to cholesterol crystals that are thought to contribute to NASH by driving simple hepatic steatosis toward fibrotic steatosis. […] First-pass effect from oral delivery, combined with the fact that SN-40X are lipophilic carboxylic acids may conspire to increase hepatic drug concentrations sufficiently to exert anti-inflammatory activity on resident hepatic macrophages and Kupffer cells that contribute to steatohepatitis.

Structure (SMILES)	inhibition of hypotonically-induced current [1]	response of hypotonically-induced current [2]	expression of LPS-induced inflammatory cytokine production (relative mRNA IL1β, TNF-α, CXCL10) [3]	suppression of inflammasome mediated IL-1β secretion [4]
CCCCC1(C2CCCC2)Cc2cc(OCCCC(=O)O)c(Cl)c(Cl)c2C1=O (stereo not drawn) [DCPIB, 4-[(2-butyl-6,7-dichloro-2-cyclopentyl-1-oxo-2,3-dihydro-1H-inden-5-yl)oxy]butanoic acid]	inhibition	No response	–	–
CCCCC1(C2CCCC2)Cc2cc(OCCCC(=O)O)c(Cl)c(Cl)c2C1=O (stereo not drawn) [SN-401]	–	–	Inhibit	fully suppressed
CCCCC1(C2CCCC2)Cc2cc(OCCCCCC(=O)O)c(Cl)c(Cl)c2C1=O (stereo not drawn) [SN-406]	–	–	Inhibit	fully suppressed
